Assay results: US20240391936A1, “TETRAHYDROTHIENO PYRIDINE DERIVATIVES AS DDRS INHIBITORS” (CHIESI FARMACEUTICI S.P.A., priority 2021, published 2024)

Columns and labels:
[1] = molecular target: T1, DDR1 (Homo sapiens, UniProt Q08345); assay: DDR1 binding assay (LanthaScreen Europium Kinase Binding assay); design: purchased Carna Biosciences; conditions: binding assay, 5 nM DDR1, 20 nM Kinase Tracer 178; Ki from IC50 by Cheng-Prusoff; read-out: Ki DDR1
In short: (§1)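 TR-FRET tracer-displacement format: 665/615 nm emission ratio (340 nm excitation) gave IC50 by 4-parameter fit, then Ki via Cheng-Prusoff. Each kinase at 5 nM with 2 nM Eu-anti-GST antibody and Tracer 178 (DDR1 20 nM, DDR2 10 nM), 1 h, room temperature, HEPES pH 7.5 buffer.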

[2] = molecular target: T2, DDR2 (Homo sapiens, UniProt Q16832); assay: DDR2 binding assay (LanthaScreen Europium Kinase Binding assay); design: purchased Life Technologies; conditions: binding assay, 5 nM DDR2, 10 nM Kinase Tracer 178; Ki from IC50 by Cheng-Prusoff; read-out: Ki DDR2
T2 sequence (Q16832 22-855): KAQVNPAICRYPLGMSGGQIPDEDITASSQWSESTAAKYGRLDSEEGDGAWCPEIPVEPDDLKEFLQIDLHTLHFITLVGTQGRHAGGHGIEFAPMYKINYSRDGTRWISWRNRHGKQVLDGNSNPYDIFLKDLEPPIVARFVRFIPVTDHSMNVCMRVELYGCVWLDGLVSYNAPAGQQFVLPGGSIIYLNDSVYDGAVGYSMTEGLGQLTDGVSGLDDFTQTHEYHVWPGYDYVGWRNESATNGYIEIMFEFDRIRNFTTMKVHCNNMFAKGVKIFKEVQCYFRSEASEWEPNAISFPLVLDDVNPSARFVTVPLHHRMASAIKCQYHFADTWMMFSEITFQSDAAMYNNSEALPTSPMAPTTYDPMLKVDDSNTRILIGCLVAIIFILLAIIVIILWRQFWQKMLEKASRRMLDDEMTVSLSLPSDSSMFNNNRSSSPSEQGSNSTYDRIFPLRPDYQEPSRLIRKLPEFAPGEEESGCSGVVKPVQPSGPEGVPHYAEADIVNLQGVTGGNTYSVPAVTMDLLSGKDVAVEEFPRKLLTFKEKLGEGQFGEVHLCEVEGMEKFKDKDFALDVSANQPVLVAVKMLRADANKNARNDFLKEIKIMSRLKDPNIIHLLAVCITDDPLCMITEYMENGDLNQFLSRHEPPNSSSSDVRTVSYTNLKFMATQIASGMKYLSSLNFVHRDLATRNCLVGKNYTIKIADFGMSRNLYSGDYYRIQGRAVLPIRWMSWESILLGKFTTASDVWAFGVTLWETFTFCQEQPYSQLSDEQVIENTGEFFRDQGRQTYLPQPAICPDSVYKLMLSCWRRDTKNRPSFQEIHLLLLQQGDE
In short: as §1

[3] = molecular target: T1, DDR1; assay: DDR1 cell based assay (PathHunter U2OS DDR1 assay); design: host or cells: U2OS-DDR1 (PathHunter); conditions: U2OS-DDR1 cells, bovine Type II Collagen 20 μg/ml
In short: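 Receptor activation measured by enzyme-fragment complementation luminescence in engineered U2OS cells. Compound added 30 min before overnight challenge with 20 μg/ml bovine collagen II; data scaled between vehicle and collagen-stimulated controls, IC50 derived by four-parameter variable-slope fitting.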

T1 sequence (Q08345 19-913): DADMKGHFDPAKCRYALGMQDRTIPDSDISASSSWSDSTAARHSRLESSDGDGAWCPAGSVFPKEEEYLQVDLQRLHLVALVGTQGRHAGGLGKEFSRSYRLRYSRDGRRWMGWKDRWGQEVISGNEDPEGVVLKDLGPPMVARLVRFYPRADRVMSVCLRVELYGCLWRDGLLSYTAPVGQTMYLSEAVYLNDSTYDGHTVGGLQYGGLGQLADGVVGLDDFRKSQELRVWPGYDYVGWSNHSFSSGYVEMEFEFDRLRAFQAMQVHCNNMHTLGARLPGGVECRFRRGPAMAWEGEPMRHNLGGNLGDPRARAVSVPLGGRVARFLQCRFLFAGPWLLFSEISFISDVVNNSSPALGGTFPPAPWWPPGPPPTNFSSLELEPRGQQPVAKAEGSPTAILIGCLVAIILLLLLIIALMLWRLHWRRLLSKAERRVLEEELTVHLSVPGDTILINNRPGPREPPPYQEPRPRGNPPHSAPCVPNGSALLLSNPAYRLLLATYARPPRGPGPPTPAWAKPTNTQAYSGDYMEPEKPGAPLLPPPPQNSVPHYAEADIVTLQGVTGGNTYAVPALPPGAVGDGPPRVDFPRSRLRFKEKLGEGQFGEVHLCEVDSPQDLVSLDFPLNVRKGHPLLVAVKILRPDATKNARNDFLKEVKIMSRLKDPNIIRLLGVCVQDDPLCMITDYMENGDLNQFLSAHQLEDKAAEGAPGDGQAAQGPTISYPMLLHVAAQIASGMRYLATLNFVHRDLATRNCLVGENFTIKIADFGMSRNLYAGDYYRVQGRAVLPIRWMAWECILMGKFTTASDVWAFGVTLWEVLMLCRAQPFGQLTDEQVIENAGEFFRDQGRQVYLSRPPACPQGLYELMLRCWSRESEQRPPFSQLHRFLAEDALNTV

SMILES | Ki [1] [µM] | Ki [2] [µM] | IC50 [3] [µM]
O=C(Nc1cccc(C(F)(F)F)c1)c1csc2c1CCN(C(=O)c1cnc3ccc(OCCN4CCOCC4)cn13)C2 [Example 170, 6-(6-(2-morpholinoethoxy)imidazo[1,2-a]pyridine-3-carbonyl)-N-(3-(trifluoromethyl)phenyl)-4,5,6,7-tetrahydro thieno[2,3-c]pyridine-3-carboxamide] | < 0.025 | < 0.025 | 0.025 to 0.05
O=C(Nc1ccc(CO)c(C(F)(F)F)c1)c1csc2c1CCN(C(=O)c1cnn3ccncc13)C2 [Example 180, N-(4-(hydroxymethyl)-3-(trifluoromethyl)phenyl)-6-(pyrazolo[1,5-a]pyrazine-3-carbonyl)-4,5,6,7-tetrahydrothieno[2,3-c]pyridine-3-carboxamide] | < 0.025 | < 0.025 | 0.025 to 0.05
O=C(Nc1cc(CN2CCCC2)cc(C(F)(F)F)c1)c1csc2c1CCN(C(=O)c1cnc3ccccn13)C2 [Example 11] | < 0.025 | < 0.025 | < 0.025
CC(C)Cc1cc(NC(=O)c2csc3c2CCN(C(=O)c2cnc4ccccn24)C3)n(C)n1 [Example 43, 6-(imidazo[1,2-a]pyridine-3-carbonyl)-N-(3-isobutyl-1-methyl-1H-pyrazol-5-yl)-4,5,6,7-tetrahydrothieno[2,3-c]pyridine-3-carboxamide] | < 0.025 | < 0.025 | 0.025 to 0.05
Cc1ccn2c(C(=O)N3CCc4c(C(=O)Nc5cc(C(C)(C)C)nn5C)csc4C3)cnc2c1 [Example 79, N-(5-tert-butyl-2-methyl-pyrazol-3-yl)-6-(7-methylimidazo[1,2-a]pyridine-3-carbonyl)-5,7-dihydro-4H-thieno[2,3-c]pyridine-3-carboxamide] | < 0.025 | < 0.025 | 0.025 to 0.05
Cc1n[nH]c2ncc(CN3CCc4c(C(=O)Nc5cc(C(C)(C)C)no5)csc4C3)cc12 [Example 147, N-(3-(tert-butyl)isoxazol-5-yl)-6-((3-methyl-1H-pyrazolo[3,4-b]pyridin-5-yl)methyl)-4,5,6,7-tetrahydrothieno[2,3-c]pyridine-3-carboxamide] | < 0.025 | < 0.025 | < 0.025
CC(C)(C)c1cc(NC(=O)c2csc3c2CCN(C(=O)c2cnc4ccccn24)C3)n(CCO)n1 [Example 64, N-(3-(tert-butyl)-1-(2-hydroxyethyl)-1H-pyrazol-5-yl)-6-(imidazo[1,2-a]pyridine-3-carbonyl)-4,5,6,7-tetrahydrothieno[2,3-c]pyridine-3-carboxamide] | < 0.025 | < 0.025 | 0.025 to 0.05
CC(C)n1nc(C(C)(C)C)cc1NC(=O)c1csc2c1CCN(C(=O)c1cnc3ccccn13)C2 [Example 38, N-(3-(tert-butyl)-1-isopropyl-1H-pyrazol-5-yl)-6-(imidazo[1,2-a]pyridine-3-carbonyl)-4,5,6,7-tetrahydrothieno[2,3-c]pyridine-3-carboxamide] | < 0.025 | < 0.025 | 0.025 to 0.05
CN(C)[C@@H]1CCN(Cc2cc(NC(=O)c3csc4c3CCN(Cc3cnc5[nH]ccc5c3)C4)cc(C(F)(F)F)c2)C1 [Example 159, (R)-6-((1H-pyrrolo[2,3-b]pyridin-5-yl)methyl)-N-(3-((3-(dimethylamino)pyrrolidin-1-yl)methyl)-5-(trifluoromethyl)phenyl)-4,5,6,7-tetrahydrothieno[2,3-c]pyridine-3-carboxamide] | < 0.025 | < 0.025 | 0.025 to 0.05
O=C(Nc1cncc(OC(F)F)c1)c1csc2c1CCN(C(=O)c1cnc3ccccn13)C2 [Example 118, N-(5-(difluoromethoxy)pyridin-3-yl)-6-(imidazo[1,2-a]pyridine-3-carbonyl)-4,5,6,7-tetrahydrothieno[2,3-c]pyridine-3-carboxamide] | < 0.025 | < 0.025 | 0.025 to 0.05

Now from value to molecule:

Ki [1] [µM] | Ki [2] [µM] | IC50 [3] [µM] | SMILES
< 0.025 | 0.025 to 0.05 | 0.05 to 0.08 | Cc1ccc(-n2nc(C(C)(C)C)cc2NC(=O)c2csc3c2CCN(Cc2ccnc4[nH]ccc24)C3)cc1 [Example 76, 6-((1H-pyrrolo[2,3-b]pyridin-4-yl)methyl)-N-(3-(tert-butyl)-1-(p-tolyl)-1H-pyrazol-5-yl)-4,5,6,7-tetrahydrothieno[2,3-c]pyridine-3-carboxamide]
< 0.025 | < 0.025 | < 0.025 | O=C(Nc1ccc(OC2COC2)c(C(F)(F)F)c1)c1csc2c1CCN(C(=O)c1cnc3ccccn13)C2 [Example 13, 6-(imidazo[1,2-a]pyridine-3-carbonyl)-N-(4-(oxetan-3-yloxy)-3-(trifluoromethyl)phenyl)-4,5,6,7-tetrahydrothieno[2,3-c]pyridine-3-carboxamide]
< 0.025 | < 0.025 | 0.025 to 0.05 | CN(C)Cc1ccc(NC(=O)c2csc3c2CCN(C(=O)c2cnc4ccccn24)C3)cc1C(F)(F)F [Example 27]
< 0.025 | < 0.025 | 0.025 to 0.05 | CC(C)(C)c1cc(NC(=O)c2csc3c2CCN(C(=O)c2cnc4ccccn24)C3)n(-c2ccccc2)n1 [Example 6, N-(3-(tert-butyl)-1-phenyl-1H-pyrazol-5-yl)-6-(imidazo[1,2-a]pyridine-3-carbonyl)-4,5,6,7-tetrahydrothieno[2,3-c]pyridine-3-carboxamide]
< 0.025 | 0.05 to 0.08 | 0.025 to 0.05 | CC1c2scc(C(=O)Nc3cc(C(C)(C)C)nn3C)c2CCN1C(=O)c1cnc2ccccn12 (stereo not drawn) [Example 99, N-(3-(tert-butyl)-1-methyl-1H-pyrazol-5-yl)-6-(imidazo[1,2-a]pyridine-3-carbonyl)-7-methyl-4,5,6,7-tetrahydrothieno[2,3-c]pyridine-3-carboxamide]
< 0.025 | < 0.025 | < 0.025 | O=C(Nc1cc(F)cc(OC(F)(F)F)c1)c1csc2c1CCN(C(=O)c1cnc3ccccn13)C2 [Example 10, N-(3-fluoro-5-(trifluoromethoxy)phenyl)-6-(imidazo[1,2-a]pyridine-3-carbonyl)-4,5,6,7-tetrahydrothieno[2,3-c]pyridine-3-carboxamide]
< 0.025 | < 0.025 | < 0.025 | O=C(Nc1cccc(C(F)(F)F)c1)c1csc2c1CCN(Cc1cnc3ccnn3c1)C2 [Example 88, 6-(pyrazolo[1,5-a]pyrimidin-6-ylmethyl)-N-(3-(trifluoromethyl)phenyl)-4,5,6,7-tetrahydrothieno[2,3-c]pyridine-3-carboxamide]
< 0.025 | < 0.025 | < 0.025 | O=C(Nc1cc(N2CCOCC2)cc(C(F)(F)F)c1)c1csc2c1CCN(C(=O)c1cnn3ccncc13)C2 [Example 182, N-(3-morpholino-5-(trifluoromethyl)phenyl)-6-(pyrazolo[1,5-a]pyrazine-3-carbonyl)-4,5,6,7-tetrahydrothieno[2,3-c]pyridine-3-carboxamide]
< 0.025 | < 0.025 | 0.05 to 0.08 | CC(C)Cc1cc(NC(=O)c2csc3c2CCN(C(=O)c2cnn4ccncc24)C3)on1 [Example 183, N-(3-isobutylisoxazol-5-yl)-6-(pyrazolo[1,5-a]pyrazine-3-carbonyl)-4,5,6,7-tetrahydrothieno[2,3-c]pyridine-3-carboxamide]
< 0.025 | < 0.025 | 0.025 to 0.05 | O=C(Nc1cccc(C(F)(F)F)c1)c1csc2c1CCN(C(=O)c1cnc3[nH]ccc3c1)C2 [Example 68, 6-(1H-pyrrolo[2,3-b]pyridine-5-carbonyl)-N-(3-(trifluoromethyl)phenyl)-4,5,6,7-tetrahydrothieno[2,3-c]pyridine-3-carboxamide]
< 0.025 | < 0.025 | 0.05 to 0.08 | CC(F)(F)c1cncc(NC(=O)c2csc3c2CCN(C(=O)c2cnc4ccccn24)C3)c1 [Example 115, N-(5-(1,1-difluoroethyl)pyridin-3-yl)-6-(imidazo[1,2-a]pyridine-3-carbonyl)-4,5,6,7-tetrahydrothieno[2,3-c]pyridine-3-carboxamide]
